What was measured:
Test in all cases: Growth in liquid media in presence of test compound
Format in all cases: cell-based
[1] = system: Mycobacterium tuberculosis (H37Rv)
[2] = system: Escherichia coli (ATCC 25922)
Source text: (§1) Test organisms used were the bacterial strains Escherichia coli (ATCC 25922), Pseudomonas aeruginosa (ATCC 27853), Staphylococcus aureus (ATCC 25923), Streptococcus pyogenes (ATCC 19615), and Mycobacterium tuberculosis (H37Rv), and the yeast strain Candida albicans (ATCC 90028).
(§2) The liquid media used for growth were Luria-Bertani (Becton Dickinson, Sparks, Md.) and Mueller-Hinton (bio-Merieux, Paris, France) broths, but with Saburo medium for Candida and Middlebrook 7H9 medium (Difco) for mycobacteria.
(§3) The strains were grown at 37° C. and after suitable cell concentrations had been reached, 100 μL of each cell suspension was added to a tube with growth media and test compound. Cultivation of the bacteria was then carried out in the presence of each test compound at 37° C. and the tubes examined for visible growth. The compounds were tested at concentrations of either 500 mg/l, 50 mg/l or 5 mg/l. This assay was repeated twice.
(§4) Some compounds were only tested against some test organisms. It will be appreciated that the charge of these molecules will depend on the environment, some of the Examples are shown with a suitable counter ion, some without.

[3] = system: Candida albicans (ATCC 90028)
Source text: as §1, §2, §3, §4

[4] = system: Streptococcus pyogenes (ATCC 19615)
Source text: as §1, §2, §3, §4

[5] = system: Pseudomonas aeruginosa (ATCC 27853)
Source text: as §1, §2, §3, §4

[6] = system: Staphylococcus aureus (ATCC 25923)
Source text: as §1, §2, §3, §4

Row | Compound | Growth in the presence of test compound, M. tuberculosis ([1]; 5 mg/L) | Growth in the presence of test compound, M. tuberculosis ([1]; 50 mg/L) | Growth in the presence of test compound, M. tuberculosis ([1]; 500 mg/L) | Growth in the presence of test compound, E. coli ([2]; 5 mg/L) | Growth in the presence of test compound, E. coli ([2]; 50 mg/L) | Growth in the presence of test compound, E. coli ([2]; 500 mg/L) | Growth in the presence of test compound, C. albicans ([3]; 5 mg/L) | Growth in the presence of test compound, C. albicans ([3]; 50 mg/L) | Growth in the presence of test compound, C. albicans ([3]; 500 mg/L) | Growth in the presence of test compound, S. pyogenes ([4]; 5 mg/L) | Growth in the presence of test compound, S. pyogenes ([4]; 50 mg/L) | Growth in the presence of test compound, S. pyogenes ([4]; 500 mg/L) | Growth in the presence of test compound, P. aeruginosa ([5]; 5 mg/L) | Growth in the presence of test compound, P. aeruginosa ([5]; 50 mg/L) | Growth in the presence of test compound, P. aeruginosa ([5]; 500 mg/L) | Growth in the presence of test compound, S. aureus ([6]; 5 mg/L) | Growth in the presence of test compound, S. aureus ([6]; 50 mg/L) | Growth in the presence of test compound, S. aureus ([6]; 500 mg/L)
1 | CC1(C)C2CC3OB([C@H](CNC(=O)[C@@H](N)Cc4ccccc4)Cc4ccccc4)O[C@@]3(C)C1C2 (stereo partly drawn) [Compound 14] | + | − | − | + | + | + | + | ± | ± | + | + | ± | + | + | − | + | + | +
2 | C[C@H](N)C(=O)NC[C@H](Cc1ccccc1)B1OC2CC3CC(C3(C)C)[C@]2(C)O1 (stereo partly drawn) [Compound 15] | + | − | − | + | + | ± | + | + | − | + | + | + | + | + | + | + | + | −
3 | CC1(C)C2CC3OB([C@H](CCc4ccccc4)CNC(=O)[C@@H](N)Cc4ccccc4)O[C@]3(C)C1C2 (stereo partly drawn) [Compound 18] | + | − | − | + | + | + | + | ± | ± | + | ± | ± | + | ± | ± | + | − | ±
4 | CC1(C)C2CC3OB([C@H](CCc4ccccc4)CNC(=O)[C@@H](N)CCCCN)O[C@]3(C)C1C2 (stereo partly drawn) [Compound 19] | + | − | − | + | + | − | + | + | − | + | + | − | + | + | − | + | + | ±
5 | C[C@@H](B1OC2CC3CC(C3(C)C)[C@@]2(C)O1)[C@@H](Cc1ccccc1)NC(=O)[C@@H]1CCCN1 (stereo partly drawn) [Compound 29] | + | + | − |  |  |  | + | + | ± | + | + | − | + | + | ± | + | + | −

— US20150018311A1, “THERAPEUTIC BORON-CONTAINING COMPOUNDS” (priority 2012, published 2015)
